Results reported in US8158811B2, “Unsaturated fatty hydroxy acid derivatives and the dermocosmetologic use thereof” (Pierre Fabre Dermo-Cosmetique, priority 2005, dated 2012).

Key:
[1] = system: intracellular AOSs, fibroblast line L929; test: in vitro assay of intracellular AOSs (H2DCF-DA probe) after H2O2/iron oxidative stress; assay type: cell-based, murin; details: pre-incubation 3 h, L929
Source text: We set up an in vitro study model of oxidative stress induced by H2O2/iron as H2O2 generates huge amounts of intracellular AOSs as a result of a chain reaction triggered by oxidation of membrane lipids.
This technique is based on the use of a fluorescent probe, 6-carboxy-2′,7′-dichlorodihydro fluorescein diacetate, di (acetoxymethyl ester) (H2DCF-DA) which once it penetrates into the cell is deacetylated by intracellular esterases and thus forms H2DCF. This product is oxidized by intracellular AOSs into a highly fluorescent compound: 2′,7′-dichlorofluorescein (DCF) (Suematsu M et al., 1996, Free Radicals Practical Approach, Punchard ed. P 83-99).
The materials and methods used for in vitro assay of intracellular AOSs are given below. • a) Cell tool • Cutaneous murin fibroblast cell line L929. • b) Materials • 96 well flat based microplate. • Cytofluor II cytofluorameter: Ref. PERCEPTIVE BIOSYSTEMS. • c) Reagents • Cell culture reagents: • Dulbecco's Modified Eagle Medium as the culture medium (DMEM) • Foetal calf serum • Phosphate buffer PBS pH 7.4 • Trypsin EDTA (1X) Fluorescent probe • 6-carboxy-2′,7′-dichlorodihydrofluorescein diacetate, di(acetoxymethyl ester) (PM.675,43) Cell stimulation products • Hydrogen peroxide (H2O2) 3% Ref. GIFRER (Gifrer Barbezat Laboratory) • Ferrous ammonium sulphate (Fe^2+) • Ferric ammonium sulphate (Fe^3+) • d) Products tested:
For the evaluation of unsaturated fatty hydroxy acid derivatives, the dilutions are prepared in freshly prepared culture medium for a concentration range of 0.02, 0.2, 2 and 20 ng/ml. • e) Protocol. Cell culturing.
Cells from the fibroblast line L929 were cultured in 96-well flat base microplates in 100 μl of DMEM supplemented with 10% foetal calf serum. These were incubated overnight at 37° C. in a humid atmosphere at 5% CO2. The blank plate without cells was evaluated using 6 wells.
Dilutions of the products to be tested and reference molecule were made up in culture medium without foetal calf serum then deposited in 7 wells at a rate of 100 μl per well.
Cells were then incubated for 3 hours at 37° C. in a humid atmosphere at 5% CO2.
Cells were rinsed in PBS 1X at a rate of 100 μl per well. They were then incubated for 30 minutes at 37° C. in a humid atmosphere at 5% CO2 with 50 μl of the H2DCF-DA probe at 5 μM.
After 30 minutes of contact with the probe alone, cells were incubated for 30 minutes at 37° C. in a humid atmosphere at 5% CO2 with the addition of 25 μl of H2O2 at 800 μM and 25 μl of ferrous iron and ferric iron solution at 8 mM in order to obtain final concentrations of 200 μM of H2O2 and 2 mM of ferrous iron and ferric iron.
Cells were then rinsed with PBS 1X at a rate of 100 μl per well then incubated for 30 minutes at 37° C. in a humid atmosphere at 5% CO2 with 100 μl of PBS 1X.
This incubation for 1 h 30 minutes at 37° C. allows intracellular esterases to deacetylate the probe into H2DCF which can be oxidized by the intracellular AOSs into DCF: a fluorescent compound whose formation is proportional to the quantity of intracellular AOSs.
The intensity of fluorescence is read on a cytofluorimeter at λexcitation=485 nm and λemission=530 nm. This reflects the amount of intracellular AOS produced.
The ratio below makes it possible to calculate the % protection against the production of intracellular AOSs for each product concentration tested (because the intensity of fluorescence or IF reflects the release of intracellular AOSs)
• Pre-incubation: 3 h • Number of tests=3 for all compounds. • Number of tests=18 for vit. E

[2] = system: Interleukin 8; test: release of Interleukin 8 by keratinocytes NHK stimulated with PMA + calcium ionophore A23187 (ELISA); assay type: cell-based, human; details: IL8 release
[3] = system: prostaglandin 6KF1α; test: production of prostaglandin 6KF1α by keratinocytes stimulated with calcium ionophore A23187 (ELISA); assay type: cell-based; details: 3 μg/ml, A23187 1 μm 5 hours
Method: A suspension of keratinocytes in DMEM 10% foetal calf serum was divided into 6 well plates (1.2. 106cells/wells) and incubated for 16 hours at 37° C. in a 5% CO2 atmosphere. The keratinocytes were then rinsed with PBS in order to eliminate non adhering cells then exposed to the products to be tested included in DMEM without foetal calf serum (which could interfere with the assay).
The concentration tested in culture was 3 μg/ml. This was retained as the test concentration after a preliminary evaluation test for cytotoxicity (neutral red) and is not cytotoxic.
For each treatment, three wells were tested. Cells were pre-incubated for 60 minutes with the products to be tested then a stimulating agent was added to stimulate the arachidonic acid cascade (calcium ionophore) which was added for 5 hours: calcium ionophore A23187 was used at a concentration of 1 μm.
After 5 hours in culture, the culture medium for each well was recovered, centrifuged at 3000 rpm and stored at −80° C.
The production of prostaglandin 6KF1α for each of the tests was measured using a EUROMEDEX Elisa Kit.
Results are expressed as the percentage activity/stimulated control.

[4] = molecular target: T1, PAR-2 receptors (Homo sapiens, UniProt P55085); test: calcium flux induced by trypsin stimulation of PAR-2 receptors in HaCaT keratinocytes (Fluo-4/AM); assay type: cell-based; details: trypsin 10 nM
T1 construct: PAR-2 receptors for trypsin present in human keratinocytes from the HaCaT line; endogenous in cells; host or cells: HaCaT human keratinocytes
T1 sequence (P55085 26-397): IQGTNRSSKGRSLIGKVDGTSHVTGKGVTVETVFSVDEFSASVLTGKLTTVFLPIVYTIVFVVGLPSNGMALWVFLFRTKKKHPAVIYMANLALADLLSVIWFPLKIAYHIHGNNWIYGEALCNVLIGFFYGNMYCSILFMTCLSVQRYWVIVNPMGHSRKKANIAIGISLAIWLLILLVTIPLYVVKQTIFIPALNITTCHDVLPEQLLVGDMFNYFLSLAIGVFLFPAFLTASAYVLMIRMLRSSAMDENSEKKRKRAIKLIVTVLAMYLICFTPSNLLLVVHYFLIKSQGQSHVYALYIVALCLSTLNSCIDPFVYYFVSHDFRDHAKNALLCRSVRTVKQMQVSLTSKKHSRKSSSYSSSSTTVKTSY
Source text: We therefore considered evaluating anti-PAR-2 activity of hydroxyl acid derivatives of formula I on the influx of intracellular calcium induced after specific stimulation by PAR-2 receptors for trypsin present in human keratinocytes from the HaCaT line.
This technique is based on the use of an esterified fluorescent probe by an AM group which facilitates its penetration by passive diffusion into the cell. The probe used is Fluo-4/AM. Only the de-esterified form bound to the calcium ion is excitable in fluorescence (at 485 nm) and emits at 535 nm.
In vitro, at the cell level, specific stimulation of the PAR-2 receptors by trypsin leads to mobilisation of intra and extracellular calcium detected with the aid of the fluorescent probe.

| Structure (SMILES) | Percentage inhibition of the intracellular production of AOS ([1]; 0.02 ng/ml) | Percentage inhibition of the intracellular production of AOS ([1]; 0.2 ng/ml) | Percentage inhibition of the intracellular production of AOS ([1]; 2 ng/ml) | Percentage inhibition of the intracellular production of AOS ([1]; 20 ng/ml) | ED50 [2] | % inhibiting activity of evaluated molecules on the production of PG6KF1α Inflammation [3] | % inhibition ([4]; 0.1 μg/ml) | % stimulation ([4]; 0.1 μg/ml) | % inhibition ([4]; 0.3 μg/ml) | % stimulation ([4]; 0.3 μg/ml) | % inhibition ([4]; 1 μg/ml) | % stimulation ([4]; 1 μg/ml) | % inhibition ([4]; 3 μg/ml) | % stimulation ([4]; 3 μg/ml) | % inhibition ([4]; 10 μg/ml) | % stimulation ([4]; 10 μg/ml) | % inhibition ([4]; 30 μg/ml) | % stimulation ([4]; 30 μg/ml) | % inhibition ([4]; 100 μg/ml) | % stimulation ([4]; 100 μg/ml) |
| --- | --- | --- | --- | --- | --- | --- | --- | --- | --- | --- | --- | --- | --- | --- | --- | --- | --- | --- | --- | --- |
| O=C(O)C(F)=CCCCCCCCCCCCCCCO [n=13, R=H, Rn=H, R1=F, 17-hydroxy-heptadec-2-fluoro-2-enoic acid] | 36% | 28% | 14% | −9% | <3 µg/mL | 14% | −1% | 13.78% | 6% | 13.06% | 9% | 12.74% | 7% | 12.97% | 42% | 9.55% | – | – | – | – |
| O=C(O)/C=C/CCCCCCCCCCCO [n=10, R=H, Rn=H, R1=H, 14-hydroxy-tetradec-2t-enoic acid] | 11% | 4% | −20% | −34% | – | Non active | – | – | – | – | – | – | – | – | −17% | 15.33% | −4% | 14.10% | 39% | 9.84% |
| O=C(O)C=CCCCCO [n=3, R=H, Rn=H, R1=H] | 21% | 15% | 11% | 14% | – | 29% | – | – | – | – | – | – | – | – | – | – | – | – | – | – |
| O=C(O)C=CCCCCCO [n=4, R=H, Rn=H, R1=H] | 17% | 9% | 9% | 0% | – | – | – | – | – | – | – | – | – | – | – | – | – | – | – | – |
| O=C(O)C(F)=CCCCCCO (mixture of isomers) [n=4, R=H, Rn=H, R1=F] | 10% | 6% | −4% | −36% | – | 30% | – | – | – | – | – | – | – | – | – | – | – | – | – | – |
| O=C(O)C(F)=CCCCCCCCCCCCO [n=10, R=H, Rn=H, R1=F, 14-hydroxy-tetradec-2-fluoro-2-enoic acid] | 29% | 16% | 0% | −19% | – | 18% | – | – | – | – | – | – | – | – | – | – | – | – | – | – |
| O=C(O)/C=C/CCCCCCCCCCO [n=9, R=H, Rn=H, R1=H, 13-hydroxy-tridec-2t-enoic acid] | 9% | 10% | 6% | −22% | – | 31% | – | – | – | – | – | – | – | – | – | – | – | – | – | – |
| O=C(O)/C=C/CCCCCCCCCCCCCCO [n=13, R=H, Rn=H, R1=H, 17-hydroxy-heptadec-2t-enoic acid] | 3% | 13% | −1% | −10% | <3 µg/mL | 25% | – | – | – | – | – | – | – | – | – | – | – | – | – | – |
